Key:
Assay type in all cases: functional, cell-based
[1] = system: MCF7; test: Cytotoxicity against human MCF7 cells after 2 days by MTT assay; conditions: MCF7, 48 h
[2] = system: MDA-MB-231; test: Cytotoxicity against human MDA-MB-231 cells after 2 days by MTT assay; conditions: MDA-MB-231, 48 h
[3] = system: A549; test: Cytotoxicity against human A549 cells after 2 days by MTT assay; conditions: A549, 48 h
[4] = system: HeLa; test: Cytotoxicity against human HeLa cells assessed as growth inhibition after 2 days by MTT assay; conditions: 48 h

SMILES	IC50 [1] [µM]	IC50 [2] [µM]	IC50 [3] [µM]	IC50 [4] [µM]
C=CCCCC/C=C/C=C/C[C@H](O)[C@H](C)N	> 50	8.03	14.7	5.91
CCCCCC/C=C\CC/C=C/C[C@H](O)[C@H](C)N	13.5	12.7	7.81	39.7
COc1cccc2c1C(=O)c1c(O)c3c(c(O)c1C2=O)C[C@@](O)(C(=O)CO)C[C@@H]3O[C@H]1C[C@H](N)[C@H](O)[C@H](C)O1 [DOXORUBICIN]	13.5	0.91	0.459	0.509
C=CCCCCCC/C=C\C[C@H](O)[C@H](C)N	15.5	10.4	> 50	19.2

— ChEMBL document CHEMBL2417385, “A new strategy for the synthesis of crucigasterin A, and cytotoxic activity of this compound and its related analogues” (Bioorg Med Chem Lett, 2013)
